Source: patent publication US20060280723A1 (priority 2003, published 2006)
Read-outs that look alike come from different tables or passages of the source.

Experiments:
SARS-HCoV 2003VA2774 = type: cell-based, SARS human coronavirus (SARS-HCoV)
Semliki Forest Virus = experiment: Protection of Vero E6 cells from Semliki Forest Virus cytopathic effect (crystal violet); type: cell-based, Semliki Forest Virus (SFV)
Method: Vero E6 cells were seeded in 96-well plate, at a density of 10000 cells per well. […] Media was removed from cells, and cells were washed in 1× PBS, then fixed for 10 minutes at room temperature in 4% paraformaldehyde in PBS. Paraformaldehyde was removed and cells were stained with 0.2% crystal violet in 2% ethanol for 10 minutes at room temperature. Stained plates were washed and degree of colouration was quantified at 630 nm using an ELISA reader. Triplicate data is presented in graph format (FIG. 2).

[1] = test system: SARS-HCoV, strain Frankfurt-1
Vero E6 cells [2] = test system: Vero E6 cells
SARS-HCoV [3] = conditions: Lee et al., 2003 and Poutanen et al.; cited from earlier work
Vero E6 cells [4] = experiment: Cytotoxicity on Vero E6 cells without viral challenge; type: cell-based, African Green Monkey; conditions: three days, inverted microscope
Method: To determine cytotoxicity, 100 microlitres of serial 10-fold dilutions of each treatment were incubated with 100 microlitres of Vero E6 cells giving a final cell count of 20,000 cells per well in a 96-well plate, without viral challenge.

SARS-HCoV [5] = conditions: literature; cited from earlier work
[6] = test system: 'common cold' coronaviruses; conditions: laboratory tests; cited from earlier work
[7] = 10^4 pfu/well, MOI 0.5, Vero E6 cells

## Intron A: recombinant alpha IFN product from Schering Plough (IFN-alpha 2b)
SARS-HCoV 2003VA2774
  Concentration up to which cells were not fully protected from SARS-HCoV infection: > 100000 IU/ml
  Inhibition of cytopathic effect: did not show significant inhibition
Semliki Forest Virus; at 39 IU/ml
  Loss of protection: equivalent loss of protection
Semliki Forest Virus; at 625 IU/ml
  Degree of protection: same degree of protection
[1]
  IC50 Exp. Type 1, 10 TCID50: >3.125 IU/ml
  IC50 Exp. Type 1, 100 TCID50: >3.125 IU/ml
  IL50 Exp. Type 2, 10 TCID50: >3.125 IU/ml
  IL50 Exp. Type 2, 100 TCID50: >3.125 IU/ml
Vero E6 cells [2]
  Tendency to increase baseline levels in the cytotoxicity assay: no similar tendency

## CCOC(=O)C1=C[C@@H](OC(CC)CC)[C@H](NC(C)=O)[C@@H](N)C1 [Oseltamivir]
SARS-HCoV [3]
  Therapeutic benefit in SARS-HCoV infection: has not shown any therapeutic benefit

## NC(=O)c1ncn([C@@H]2O[C@H](CO)[C@@H](O)[C@H]2O)n1 [Ribavirin]
SARS-HCoV 2003VA2774; [7]
  CIA100 (reached: Yes): Yes
  Concentration at which complete cytopathic effect: 5,000 μg/ml
SARS-HCoV 2003VA2774; cytopathic endpoint assay, Vero E6 cells
  Inhibition of cytopathic effect: inhibitory activity at all viral titres
SARS-HCoV 2003VA2774; high viral challenge 10^4 pfu/well, MOI 0.5
  Inhibition of cytopathic effect: Complete inhibition
SARS-HCoV 2003VA2774; virus load 100 pfu/well
  CIA100 (concentration inhibiting cytopathic effect in all four set-ups): 500 µg/mL
SARS-HCoV 2003VA2774; virus load 1,000 pfu/well
  CIA100 (concentration inhibiting cytopathic effect in all four set-ups): 5,000 μg/ml
Vero E6 cells [4]
  Cytotoxicity at inhibitory concentration: showed cytotoxicity
SARS-HCoV [5]
  Efficacy against SARS-HCoV in vitro: negative results

B1: Cystatin C: a protease inhibitor found in human blood (protein, UniProt P01034 27-146, looked up)
Cystatin-C: SSPGKPPRLVGGPMDASVEEEGVRRALDFAVGEYNKASNDMYHSRALQVVRARKQIVAGVNYFLDVELGRTTCTKTQPNLDNCPFHDQPHLKRKAFCSFQIYAVPWQGTMTLSKSTCQDA
[6]
  Replication of 'common cold' coronaviruses: found to block replication
